2 compounds from patent publication US20090093054A1, “CRYOPRESERVATION OF HUMAN BLASTOCYST-DERIVED STEM CELLS BY USE OF A CLOSED STRAW VITRIFICATION METHOD” (Cellartis AB, priority 2003, published 2009) can be followed below.

SMILES strings stand for the structures. Several values for one entry are separate records, joined by “and”; a condition that tells them apart may be missing. Equal values may be shown once.

In one assay the test system is Human BS cell line SA121. The assay is described as follows: Thawing recovery after closed straw vitrification and devitrification, cell line SA121. Type of assay: cell-based. The conditions noted are these: for Thawing recovery, trehalose compared with sucrose: same molar concentration in vitrification and devitrification medium; for Thawing recovery: viable thawed colonies / hBS cell pieces originally vitrified, per individual closed straw, 48 h after seeding on MEF, sugar in vitrification and devitrification medium, same molar concentration for both; for Thawing recovery (SA121): viable colonies / pieces vitrified per closed straw, 48 h after seeding. The protocol:
Two solutions A and B are prepared (Solution A: Sterile filtered 10% Ethylene glycol, 10% DMSO in Cryo-PBS; Solution B: Sterile filtered 0.3M Trehalose, 20% Ethylene glycol, 10% DMSO in Cryo-PBS) Selected colonies of human blastocyst-derived stem cells, which display proper morphology, are cut in the same way as when the cells are cut for regular passage using a stem cell cutting tool (Swemed Labs International, BilIdal, Sweden). The cell pieces should be about 0.1-0.4 mm×0.1-0.4 mm in size. The cell pieces are incubated first in 500 μl preheated (37° C.) Solution A for 1 min and then transferred to 25 μl Solution B and incubated for 30 s and then transferred again to a fresh drop of Solution B and incubated for 30 s. The volume is about 40-50 μl. About 10 cell pieces are aspirated into a straw prepared for vitrification and the straw is then closed with a bond. The straw is plunged into liquid nitrogen.
Two solutions C and D are prepared (Solution C: Sterile filtered 0.2M Trehalose in Cryo-PBS.; Solution D: Sterile filtered 0.1 M Trehalose in Cryo-PBS). Solutions C and D and hBS-medium are preheated at 37° C. A closed straw containing vitrified hBS cells (about 10 cell pieces) is removed from the liquid nitrogen tank. The straw is keep at room temperature for 10 s and then quickly thawed in a 40° C. water bath (within seconds). The straw is cut open in the plugged end using an autoclaved pair of scissors and the content pushed out from the straw into solution C using a syringe. The hBS cells are incubated for 1 min in 500 μl solution C and the transferred to 500 μl solution D and incubated for 5 min. Under a stero-microscope the hBS cell pieces are quickly rinsed in hBS medium and then seeded in a culture dish on top of mouse embryonic feeder cells in hBS medium. The cells are then cultured (incubated at 37° C.) and the number of established new colonies are counted and passaged in order to verify the viability of the hBS cells after vitrification. The recovery of viable cells following this vitrifying and thawing procedures is normally in the range of 70-100%.
Human BS cells (cell line SA121) were vitrified and thawed either following the procedure described in Example 1 & 2 or following the procedure described in Example 1 and 2 with the exception that trehalose was used in the vitrification and devitrification medium was replaced by sucrose in the same molar concentration as used for trehalose. Forty-eight hours after seeding in culture dishes on top of mouse embryonic feeder cells the hBS cell colonies were evaluated and counted. The thawing recovery was calculated as the ratio between the number of viable thawed colonies (displaying appropriate hBS cell morphology) and the number of hBS cell pieces originally vitrified. […]
Human BS cells (cell line SA121) were vitrified and thawed following the procedure described in Example 1 & 2 with the exception that trehalose was used in two different concentrations (0.3M and 0.5M) in the second vitrification solution (solution B). When 0.3 M trehalose was used in solution B, solution C contained 0.2 M trehalose and solution D contained 0.1 M trehalose. When 0.5 M trehalose was used in solution B, solution C contained 0.4 M trehalose and solution D contained 0.2 M trehalose. Forty-eight hours after seeding in culture dishes on top of mouse embryonic feeder cells the hBS cell colonies were evaluated and counted. The thawing recovery was calculated as the ratio between the number of viable thawed colonies (displaying appropriate hBS cell morphology) and the number of hBS cell pieces originally vitrified. Two separate experiments using two different human BS cell lines were performed. Three straws were prepared and evaluated per cell line and the results are presented below for each individual straw.

In another assay the test system is Human BS cell line SA002. The assay is described as follows: Thawing recovery after closed straw vitrification and devitrification, cell line SA002. The conditions noted are these: viable colonies / pieces vitrified per closed straw, 48 h after seeding. Type of assay: cell-based.
[1] abbreviates: 0.3M trehalose in solution B (C 0.2 M, D 0.1 M).
[2] abbreviates: 0.5M trehalose in solution B (C 0.4 M, D 0.2 M).

For `OC[C@H]1O[C@@](CO)(O[C@H]2O[C@H](CO)[C@@H](O)[C@H](O)[C@H]2O)[C@@H](O)[C@@H]1O` [Sucrose], the “Thawing recovery, trehalose compared with sucrose” value in the assay with Human BS cell line SA121 (result in words) is listed as “no significant difference”. Also, the Thawing recovery in the assay on Human BS cell line SA121 was 8/10 and 5/10 and 9/10.
Consider `OC[C@H]1O[C@H](O[C@H]2O[C@H](CO)[C@@H](O)[C@H](O)[C@H]2O)[C@H](O)[C@@H](O)[C@@H]1O` [Trehalose], for which the “Thawing recovery (SA121)” value in the assay on Human BS cell line SA121 (setting [1]) was 6/10 and 5/10; in the assay with Human BS cell line SA121 (setting [2]), 8/10 and 9/10 and 8/8. The “Thawing recovery, 0.5 M compared with 0.3 M trehalose in solution B” value in the assay on Human BS cell line SA121 (cell lines SA121 and SA002, result in words) is “seems to work better”. Also, the “Thawing recovery, trehalose compared with sucrose” value with Human BS cell line SA121 (result in words) is “no significant difference”. Further, in the assay with Human BS cell line SA121, the Thawing recovery was 5/9 and 8/10 and 6/10. Moreover, the “Thawing recovery (SA002)” value in the assay with Human BS cell line SA002 (setting [1]) was 5/8 and 6/8 and 7/7; in the assay on Human BS cell line SA002 (setting [2]), 7/8 and 8/8 and 5/7.
